“And” between values parts separate entries of the source, which are not always exact repeats. Equal values may be shown once.
Assays:
[1] = In vivo urinary excretion of nitroxoline and nitroxoline salts in mice; set-up: species or system CD-1 ICR mice; conditions: 41.8 mg/kg
Description: Urine samples were collected in the following periods of time: 0-2, 2-6, 6-24 h. Due to the small volume of the urine from mice, the collecting system in the cage was washed with water at each collecting time. Urine samples and their wash samples were analyzed according to the same methods used in the beagle dog study (Example 24).
(§1) The same study was repeated with APL-1092, nitroxoline lysine salt.

[2] = humans, orally administered; cited from earlier work
[3] = In vivo urinary excretion of nitroxoline and nitroxoline salts in beagle dogs
Description: Urine samples were collected in the following periods of time: 0-2, 2-4, 4-6, 6-8, 8-24 h. Urine samples were analyzed by LC/MS/MS method utilizing an Agilent 1100 HPLC system with a CTC auto-sampler, an AB API4000 mass spectrometer, and a column of ACQUITY UPLC BEH C18 (2.1*50 mm) Dexamethasone was used as an internal standard. […] The range of linearity was determined to be 25˜5000 ng/mL.
as §1

[4] = Solubility tests of nitroxoline and nitroxoline salts in aqueous buffers and water; assay type: physicochemical; conditions: aqueous buffers pH 1.2 to 8, 25 °C, pH 1.2, aqueous buffer, thermodynamic from solid, all pHs tested, from pH 1.2 to 8; read-out: solubility at all pHs tested
Description: 1) Aqueous buffer solutions with varying pH were prepared as follows: • i. Water: distilled water; • ii. pH=1.2 buffer: 7.65 mL 36.5% HCl solution was diluted to 1000 mL with water; • iii. pH=4.5 buffer: 18 g sodium acetate and 9.8 mL acetic acid were diluted to 1000 mL with water; • iv. pH=5.0 buffer: sodium hydroxide was added to 0.2 mol/L monosodium phosphate (NaH2PO4) solution until the pH was adjusted to 5.0; • v. pH=6.0 buffer: 18 g sodium acetate were added into 20 mL acetic acid solution (1 M), and the mixture was diluted to 500 mL with water; • vi. pH=6.8 buffer: 250 mL of 0.2 M monopotassium phosphate (KH2PO4) solution were added to 118 mL of 0.2 M sodium hydroxide solution, and the mixture was diluted to 1000 mL with water; • vii. pH=7.4 buffer: 1.36 g monopotassium phosphate (KH2PO4) were added to 79 mL of 0.1 M sodium hydroxide solution, and the mixture was diluted to 200 mL with water; and • viii pH=8.0 buffer: 5.59 g potassium biphosphate (K2HPO4) and 0.41 g monopotassium. phosphate (KH2PO4) were added to 1000 mL water and mixed.
2) Solubility tests were performed generally as follows:
Under a temperature of 25±2° C., 10 mg of each salt sample was weighed and added to a 100 mL volumetric bottle. 0.25 mL buffer was added to the bottle, which was shaken vigorously for 30 seconds every 5 min.
If the sample was not completely dissolved, 0.7 mL of the same buffer was added, and dissolution was observed by the same shaking procedure.
If the sample was not completely dissolved, 8.5 mL of the same buffer was added, and dissolution was observed by the same shaking procedure.
If the sample was not completely dissolved, 85 mL of the same buffer was added, and dissolution was observed by the same shaking procedure.

O=[N+]([O-])c1ccc(O)c2ncccc12 [APL-1202, nitroxoline, reference compound]
24-Hr Accumulated drug in the urine ([1]; In Mice, 41.8 mg/Kg APL-1202 or equivalent dose): 79.8 µg | Total mass of nitroxoline in urine and wash ([1]; individual mice, oral, equivalent of 41.8 mg/Kg nitroxoline, 0-24 hr): 124391 ng and 50517 ng and 23093 ng and 41201 ng and 88137 ng and 151622 ng | f (%): percentage of total mass of excreted drug versus the dose amount ([1]; individual mice, oral, equivalent of 41.8 mg/Kg nitroxoline): 15.2% and 6.17% and 2.94% and 5.24% and 10.9% and 19.5% | Mass of nitroxoline, 0~2 wash ([1]; individual mice, oral, equivalent of 41.8 mg/Kg nitroxoline, cage wash 0~2 hr): 2856 ng and 6652.8 ng and 784 ng and 4212 ng and 8250 ng and 2352 ng | Mass of nitroxoline, 2~6 wash ([1]; individual mice, oral, equivalent of 41.8 mg/Kg nitroxoline, cage wash 2~6 hr): 1283 ng and 5325 ng and 957 ng and 2904 ng and 1530 ng and 346 ng | Mass of nitroxoline, 6~24 wash ([1]; individual mice, oral, equivalent of 41.8 mg/Kg nitroxoline, cage wash 6~24 hr): 249 ng and 1428 ng and 2341 ng and 1558 ng and 1102 ng and 152 ng | Mass of nitroxoline in urine, 0-2 hr ([1]; individual mice, oral, equivalent of 41.8 mg/Kg nitroxoline, urine 0-2 hr): 109552 ng and 10584 ng and 1360 ng and 21035 ng and 61040 ng and 137700 ng | Mass of nitroxoline in urine, 2-6 hr ([1]; individual mice, oral, equivalent of 41.8 mg/Kg nitroxoline, urine 2-6 hr): 10404 ng and 26418 ng and 17600 ng and 11412 ng and 14715 ng and 11000 ng | Mass of nitroxoline in urine, 6-24 hr ([1]; individual mice, oral, equivalent of 41.8 mg/Kg nitroxoline, urine 6-24 hr): 47.8 ng and 109 ng and 50.9 ng and 81 ng and 1500 ng and 71.5 ng | Total mass of nitroxoline in urine and wash, Mean ([1]; mean of mice, oral, equivalent of 41.8 mg/Kg nitroxoline, 0-24 hr): 79827 ng | f (%): percentage of total mass of excreted drug versus the dose amount, Mean ([1]; mean of mice, oral, equivalent of 41.8 mg/Kg nitroxoline): 10% | Mass of nitroxoline, 0~2 wash, Mean ([1]; mean of mice, oral, equivalent of 41.8 mg/Kg nitroxoline, cage wash 0~2 hr): 4184 ng | Mass of nitroxoline, 2~6 wash, Mean ([1]; mean of mice, oral, equivalent of 41.8 mg/Kg nitroxoline, cage wash 2~6 hr): 2057 ng | Mass of nitroxoline, 6~24 wash, Mean ([1]; mean of mice, oral, equivalent of 41.8 mg/Kg nitroxoline, cage wash 6~24 hr): 1138 ng | Mass of nitroxoline in urine, 0-2 hr, Mean ([1]; mean of mice, oral, equivalent of 41.8 mg/Kg nitroxoline, urine 0-2 hr): 56879 ng | Mass of nitroxoline in urine, 2-6 hr, Mean ([1]; mean of mice, oral, equivalent of 41.8 mg/Kg nitroxoline, urine 2-6 hr): 15258 ng | Mass of nitroxoline in urine, 6-24 hr, Mean ([1]; mean of mice, oral, equivalent of 41.8 mg/Kg nitroxoline, urine 6-24 hr): 310 ng | half-life (t1/2) [2]: 2.63 h | 24-Hr Accumulated drug in the urine ([3]; In Dogs, 75 mg APL-1202 or equivalent amount): 97 µg | f (%): percentage of total mass of excreted drug versus the dose amount ([3]; individual dogs, oral tablet, 75 mg nitroxoline equivalent): 0.074% and 0.11% and 0.205% | Total mass of nitroxoline in urine ([3]; individual dogs, oral tablet, 75 mg nitroxoline equivalent, 0-24 hr): 55350 ng and 82489 ng and 153888 ng | Mass of nitroxoline in urine, 0-2 hr ([3]; individual dogs, oral tablet, 75 mg nitroxoline equivalent, collection 0-2 hr): 5670 ng and 60420 ng and 105600 ng | Mass of nitroxoline in urine, 2-4 hr ([3]; individual dogs, oral tablet, 75 mg nitroxoline equivalent, collection 2-4 hr): 0 ng and 13005 ng and 5502 ng | Mass of nitroxoline in urine, 4-6 hr ([3]; individual dogs, oral tablet, 75 mg nitroxoline equivalent, collection 4-6 hr): 0 ng and 817 ng and 28696 ng | Mass of nitroxoline in urine, 6-8 hr ([3]; individual dogs, oral tablet, 75 mg nitroxoline equivalent, collection 6-8 hr): 0 ng and 2582 ng and 5808 ng | Mass of nitroxoline in urine, 8-24 hr ([3]; individual dogs, oral tablet, 75 mg nitroxoline equivalent, collection 8-24 hr): 49680 ng and 5664 ng and 8282 ng | f (%): percentage of total mass of excreted drug versus the dose amount, Mean ([3]; mean of dogs, oral tablet, 75 mg nitroxoline equivalent): 0.13% | Total mass of nitroxoline in urine, Mean ([3]; mean of dogs, oral tablet, 75 mg nitroxoline equivalent, 0-24 hr): 97242 ng | Mass of nitroxoline in urine, 0-2 hr, Mean ([3]; mean of dogs, oral tablet, 75 mg nitroxoline equivalent, collection 0-2 hr): 57230 ng | Mass of nitroxoline in urine, 2-4 hr, Mean ([3]; mean of dogs, oral tablet, 75 mg nitroxoline equivalent, collection 2-4 hr): 9254 ng | Mass of nitroxoline in urine, 4-6 hr, Mean ([3]; mean of dogs, oral tablet, 75 mg nitroxoline equivalent, collection 4-6 hr): 14757 ng | Mass of nitroxoline in urine, 6-8 hr, Mean ([3]; mean of dogs, oral tablet, 75 mg nitroxoline equivalent, collection 6-8 hr): 4195 ng | Mass of nitroxoline in urine, 8-24 hr, Mean ([3]; mean of dogs, oral tablet, 75 mg nitroxoline equivalent, collection 8-24 hr): 21209 ng | solubility at 30 min [4]: < 100 µg/mL
